Laboratory results taken from patent US20250129018A1, “PLEUROMUTILIN DERIVATIVES CONTAINING CYCLOALKYL GROUP AND PREPARATION METHODS AND APPLICATIONS THEREOF” (priority 2023, published 2025).
Converted amounts (≈) assume the structure as drawn.

Key:
Assay in all cases: MIC, two-fold serial dilution method
S. agalactiae-1 = type: cell-based; conditions: S. agalactiae-1
Method: (§1) The pleuromutilin derivatives 1-4 prepared from Example 9 of the present disclosure were determined for their effect on Methicillin-resistant Staphylococcus aureus, Methicillin-resistant Staphylococcus epidermidis, standard strains of Staphylococcus aureus (S. aureus-29213 and S. aureus-25923), clinical strains 1-48 of S. aureus, Escherichia coli, S. agalactiae and S. dysgalactiae equisimilis (S. dysgalactiae-1, S. dysgalactiae-2, S. dysgalactiae-3) and minimum inhibitory concentration (MIC) using a two-fold serial dilution method, and the results were shown in Table 1, Table 2 and Table 3. The standard strains are commercially available from ATCC, and the clinical strains are preserved by Lanzhou Institute of Husbandry and Pharmaceutical Science of Chinese Academy of Agricultural Sciences (Lanzhou, Gansu, China).

S. dysgalactiae-1 = type: cell-based, S. dysgalactiae equisimilis; conditions: S. dysgalactiae-1
Method: as §1

S. dysgalactiae-2 = type: cell-based, S. dysgalactiae equisimilis; conditions: S. dysgalactiae-2
Method: as §1

S. dysgalactiae-3 = type: cell-based, S. dysgalactiae equisimilis; conditions: S. dysgalactiae-3
Method: as §1

S. aureus-25923 = type: cell-based, Staphylococcus aureus; conditions: S. aureus-25923
Method: as §1

S. aureus-29213 = type: cell-based, Staphylococcus aureus; conditions: S. aureus-29213
Method: as §1

MRSA-337371 = type: cell-based, Methicillin-resistant Staphylococcus aureus; conditions: MRSA-337371
Method: as §1

MRSE = type: cell-based, Methicillin-resistant Staphylococcus epidermidis
Method: as §1

E. coli-25922 = type: cell-based, Escherichia coli; conditions: E. coli-25922
Method: as §1

| SMILES | minimum inhibitory concentration (S. agalactiae-1) | minimum inhibitory concentration (S. dysgalactiae-1) | minimum inhibitory concentration (S. dysgalactiae-2) | minimum inhibitory concentration (S. dysgalactiae-3) | minimum inhibitory concentration (S. aureus-25923) | minimum inhibitory concentration (S. aureus-29213) | minimum inhibitory concentration (MRSA-337371) | minimum inhibitory concentration (MRSE) | minimum inhibitory concentration (E. coli-25922) |
| --- | --- | --- | --- | --- | --- | --- | --- | --- | --- |
| C=CC1(C)CC(OC(=O)CSC(C)(C)CNC(=O)C2CCCC2)C2(C)C(C)CCC3(CCC(=O)C32)C(C)C1O (stereo not drawn) [derivative 3] | 0.125 µg/mL (≈ 0.222 µM) | 0.125 µg/mL (≈ 0.222 µM) | 0.125 µg/mL (≈ 0.222 µM) | 0.125 µg/mL (≈ 0.222 µM) | 0.125 µg/mL (≈ 0.222 µM) | 0.125 µg/mL (≈ 0.222 µM) | 0.25 µg/mL (≈ 0.445 µM) | 0.25 µg/mL (≈ 0.445 µM) | >16 µg/mL |
| C=CC1(C)CC(OC(=O)CSC(C)(C)CNC(=O)C2CC2)C2(C)C(C)CCC3(CCC(=O)C32)C(C)C1O (stereo not drawn) [derivative 1] | 0.031 µg/mL (≈ 0.0581 µM) | 0.031 µg/mL (≈ 0.0581 µM) | 0.031 µg/mL (≈ 0.0581 µM) | 0.031 µg/mL (≈ 0.0581 µM) | 0.031 µg/mL (≈ 0.0581 µM) | 0.031 µg/mL (≈ 0.0581 µM) | 0.031 µg/mL (≈ 0.0581 µM) | 0.031 µg/mL (≈ 0.0581 µM) | >16 µg/mL |
| C=CC1(C)CC(OC(=O)CSC(C)(C)CNC(=O)C2CCCCC2)C2(C)C(C)CCC3(CCC(=O)C32)C(C)C1O (stereo not drawn) [derivative 4] | 0.125 µg/mL (≈ 0.217 µM) | 0.125 µg/mL (≈ 0.217 µM) | 0.125 µg/mL (≈ 0.217 µM) | 0.125 µg/mL (≈ 0.217 µM) | 0.125 µg/mL (≈ 0.217 µM) | 0.125 µg/mL (≈ 0.217 µM) | 0.125 µg/mL (≈ 0.217 µM) | 0.25 µg/mL (≈ 0.434 µM) | >16 µg/mL |
